Experimental data reported in PubChem BioAssay (NCI).
“And” between values parts separate entries of the source, which are not always exact repeats. Equal entries are not always repeated.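 Dose response: 5 concentrations. Exposure: 48 h. Format: 96-well plates. Endpoint: linear interpolation; highest concentration if not reached. GI50: concentration for 50% inhibition of growth. Definition used: TGI = concentration required for complete inhibition of growth.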

What was measured:
Test in all cases: NCI-60 cell line screen, 48 h
NCI-H460 lung = tested on: NCI-H460 lung
SR leukemia = tested on: SR leukemia
MALME-3M melanoma = tested on: MALME-3M melanoma
UACC-62 melanoma = tested on: UACC-62 melanoma
MOLT-4 leukemia = tested on: MOLT-4 leukemia
A549 NSCLC = tested on: A549 NSCLC
NCI/ADR-RES ovarian = tested on: NCI/ADR-RES ovarian
T-47D breast = tested on: T-47D breast
M14 melanoma = tested on: M14 melanoma
SF-295 CNS = tested on: SF-295 CNS

SMILES	GI50 (NCI-H460 lung)	TGI (NCI-H460 lung)	GI50 (SR leukemia)	TGI (SR leukemia)	GI50 (MALME-3M melanoma)	TGI (MALME-3M melanoma)	GI50 (UACC-62 melanoma)	TGI (UACC-62 melanoma)	GI50 (MOLT-4 leukemia)	TGI (MOLT-4 leukemia)	GI50 (A549 NSCLC)	TGI (A549 NSCLC)	GI50 (NCI/ADR-RES ovarian)	TGI (NCI/ADR-RES ovarian)	GI50 (T-47D breast)	TGI (T-47D breast)	GI50 (M14 melanoma)	TGI (M14 melanoma)	GI50 (SF-295 CNS)	TGI (SF-295 CNS)
O=C(Nc1ccc(I)cc1F)c1cc(Cl)ccc1O	0.434 µM	> 26.9 µM	0.531 µM	> 100 µM	0.346 µM	1.83 µM	0.273 µM	1.05 µM	1.44 µM	5.22 µM	2.73 µM	> 100 µM	0.4 µM	3.54 µM	0.294 µM	2.57 µM	0.407 µM	4.72 µM	1.75 µM	3.49 µM
O=C1OC(CN2CCOCC2)CN1/N=C/c1ccc([N+](=O)[O-])o1 (stereo not given)		> 100 µM		> 100 µM		46.6 µM		99.2 µM		> 100 µM		> 100 µM		> 100 µM		> 100 µM		45.6 µM		> 100 µM
CNC(=O)OCC1C2=C(C(=O)C(C)=C(N)C2=O)N2CC3C(N3C)C12OC (stereo not given)		10 µM		> 100 µM		18.5 µM		22.2 µM		36.9 µM		29.5 µM		> 100 µM		> 100 µM		> 100 µM		67 µM
CC(=O)Oc1ccc(C(c2ccc(OC(C)=O)cc2)c2ccccn2)cc1	> 78.5 µM	> 100 µM	> 100 µM	> 100 µM	29.4 µM	> 100 µM	21.2 µM	> 100 µM	40.5 µM	> 100 µM	49.7 µM	> 100 µM	0.908 µM	> 100 µM	0.204 µM	0.532 µM and 1.19 µM	56.6 µM	> 100 µM	37.1 µM	> 100 µM
COc1cc(Cl)cc(-c2nn(-c3cccc(NC(=O)Nc4ccc(Cl)c(C(F)(F)F)c4)c3)cc2-c2ccncc2)c1	0.77 µM	4.08 µM	1.08 µM	4.38 µM	1.71 µM	8.59 µM	1.27 µM	3.54 µM	1.23 µM	4.65 µM	0.678 µM	10.8 µM	1.77 µM	11.6 µM	1.25 µM	8.02 µM	1.33 µM	3.47 µM	0.465 µM	2 µM
O=C1NCCS(=O)(=O)/C1=C\C=C\c1cccc(C(F)(F)F)c1	2.73 µM	7.68 µM	0.539 µM	> 100 µM	4.02 µM	17.2 µM	1.46 µM	3.89 µM	2.05 µM	9.54 µM	2.98 µM	11.6 µM	2.81 µM	14.2 µM	3.51 µM	17.3 µM	1.89 µM	7.24 µM	3.71 µM	15 µM
Cc1cccc2c(N)c3ccccc3nc12	0.523 µM	10.5 µM	0.727 µM	13.3 µM	1.39 µM	3.21 µM	1.56 µM	4.6 µM	0.556 µM	11.1 µM	1.02 µM	4.02 µM	1.32 µM	12.8 µM	2.19 µM	6.85 µM	1.87 µM	5.19 µM	1.67 µM	10.4 µM
